Results from ChEMBL document CHEMBL4145450, “Colchicine prodrugs and codrugs: Chemistry and bioactivities” (Eur J Med Chem, 2018).

Assay: Displacement of [125I]-ASOR from asialoglycoprotein receptor in mouse parenchymal liver cells after 2 hrs

COc1cc2c(c(OC)c1OC)-c1ccc(OC)c(=O)cc1[C@@H](NC(=O)CCSSCCC(=O)NC(CCCCNC(=O)[C@@H](CCCCNC(=O)CCCCO[C@@H]1O[C@H](CO)[C@H](O)[C@H](O)[C@H]1NC(C)=O)NC(=O)CCCCO[C@@H]1O[C@H](CO)[C@H](O)[C@H](O)[C@H]1NC(C)=O)C(=O)O)CC2 (stereo partly specified)
Ki: 4.5 nM
